Data: PMC4476799, “Englerin A Agonizes the TRPC4/C5 Cation Channels to Inhibit Tumor Cell Line Proliferation” (PLoS ONE, 2015)
Like-named read-outs stand apart in the source and are kept apart here.

System: cancer cell lines from the cancer cell line encyclopedia (CCLE)
Experiment: Cell line profiling (CLiP) proliferation experiment
Format: cell-based
Settings: for IC50: read-out: Crossing Point; for EC50: read-out: Inflection Point
Method: Compound profiling experiment and data analysis was performed as previously described. Data was imported and plotted using the Tibco Spotfire DXP application. Lines were categorized as sensitive, intermediate and refractory as follows: Amax<-40 & Inflection Point <2 ~ Sensitive, Amax>-20 & Inflection Point >10 ~ Refractory, all else were called Intermediate. Cancer Cell line HG-U133 Plus 2 data was processed and normalized as described. […] Five sets of refractory cell lines were generated from the pool of refractory cell lines trying to match the lineage composition of the set of sensitive cell lines. The limma package was used as previously described to perform the statistical comparison.

[1] = HT115, cell line HT115, large_intestine
[2] = Homo sapiens, 8-MG-BA, cell line 8-MG-BA, central_nervous_system, astrocytoma_Grade_IV
[3] = Homo sapiens, 769-P, cell line 769-P, kidney, clear_cell_renal_cell_carcinoma
[4] = Homo sapiens, A101D, A101D cells
[5] = Homo sapiens, A101D, cell line A101D, skin, NS
[6] = Homo sapiens, A204, cell line A-204, soft_tissue, NS
[7] = Homo sapiens, A2780, cell line A2780, ovary, adenocarcinoma
[8] = Homo sapiens, ABC-1, ABC-1 cells
[9] = Homo sapiens, ABC-1, cell line ABC-1, lung, non_small_cell_carcinoma
[10] = Homo sapiens, AMO1, cell line AMO-1, haematopoietic_and_lymphoid_tissue, plasma_cell_myeloma
[11] = Homo sapiens, BFTC-909, cell line BFTC-909, kidney, NS
[12] = Homo sapiens, BL-41, cell line BL-41, haematopoietic_and_lymphoid_tissue, Burkitt_lymphoma
[13] = Homo sapiens, BV-173, cell line BV-173, haematopoietic_and_lymphoid_tissue, blast_phase_chronic_myeloid_leukaemia
[14] = Homo sapiens, CAKI-1, cell line Caki-1, kidney, clear_cell_renal_cell_carcinoma
[15] = Homo sapiens, CAL-54, CAL-54, kidney, renal_cell_carcinoma
[16] = Homo sapiens, CAL-54, CAL-54 cells
[17] = Homo sapiens, CAL-85-1, CAL-85-1, breast, NS
[18] = Homo sapiens, CAL-85-1, CAL-85-1 cells
[19] = Homo sapiens, CAL-120, cell line CAL-120, breast, NS
[20] = Homo sapiens, CAPAN-1, Capan-1, pancreas, ductal_carcinoma
[21] = Homo sapiens, CFPAC-1, CFPAC-1, pancreas, ductal_carcinoma

CC(C)[C@@]12C[C@@H](O)[C@@](C)(O1)[C@@H]1CC[C@@H](C)[C@H]1[C@@H]2OC(=O)/C=C/c1ccccc1 [Englerin B]
IC50 (HEC-50B, cell line HEC-50B): > 30 µM
IC50 (HEC-251, cell line HEC-251, endometrium): > 30 µM
IC50 (HEC-251, cell line HEC-251): > 30 µM
IC50 (HEY A8, cell line Hey-A8, ovary): > 30 µM
IC50 (HEY A8, cell line Hey-A8): > 30 µM
IC50 [1]: 19.2 µM
EC50 [1]: 12.3 µM
IC50 [2]: 26.5 µM
EC50 [2]: 15.8 µM
IC50 (Homo sapiens, 22Rv1, cell line 22Rv1, prostate, NS): 27.2 µM
IC50 (Homo sapiens, 769-P, 769-P (kidney)): > 30 µM
IC50 [3]: > 30 µM
EC50 [3]: 20.5 µM
IC50 (Homo sapiens, 786-0, cell line 786-O, kidney, clear_cell_renal_cell_carcinoma): > 30 µM
IC50 (Homo sapiens, 786-0, cell line 786-O): > 30 µM
IC50 (Homo sapiens, 1321-N1, cell line 1321N1 (central_nervous_system, astrocytoma)): > 30 µM
IC50 (Homo sapiens, 1321-N1, cell line 1321N1, central_nervous_system, astrocytoma): > 30 µM
IC50 (Homo sapiens, 8305C, 8305C (thyroid)): > 30 µM
IC50 (Homo sapiens, 8305C, cell line 8305C, thyroid, anaplastic_carcinoma): > 30 µM
IC50 [4]: > 30 µM
EC50 [4]: 19.2 µM
IC50 [5]: > 30 µM
EC50 [5]: 19.2 µM
IC50 (Homo sapiens, A 172, cell line A172, central_nervous_system, astrocytoma_Grade_IV): > 30 µM
IC50 (Homo sapiens, A 172, cell line A172): > 30 µM
IC50 (Homo sapiens, A204, cell line A-204): > 30 µM
IC50 [6]: > 30 µM
EC50 [6]: 17.4 µM
IC50 (Homo sapiens, A253, cell line A-253, salivary_gland, mucoepidermoid_carcinoma): 14.7 µM
IC50 (Homo sapiens, A498, cell line A-498, kidney, renal_cell_carcinoma): 12.5 µM
IC50 (Homo sapiens, A549, cell line A549, lung, adenocarcinoma): 23.2 µM
IC50 (Homo sapiens, A673, A-673 cells): > 30 µM
IC50 (Homo sapiens, A673, cell line A-673, bone, NS): > 30 µM
IC50 (Homo sapiens, A2058, cell line A2058, skin, NS): 18.5 µM
EC50 (Homo sapiens, A2780, A2780 cells): 12.1 µM
IC50 [7]: 14.9 µM
EC50 [7]: 12.1 µM
IC50 (Homo sapiens, A-375, A-375 cells): > 30 µM
IC50 (Homo sapiens, A-375, cell line A-375, skin, NS): > 30 µM
IC50 [8]: > 30 µM
EC50 [8]: 23.7 µM
IC50 [9]: > 30 µM
EC50 [9]: 23.7 µM
IC50 (Homo sapiens, ACHN, ACHN cells): > 30 µM
IC50 (Homo sapiens, ACHN, cell line ACHN, kidney, renal_cell_carcinoma): > 30 µM
EC50 (Homo sapiens, AMO1, AMO-1 cells): 12.2 µM
IC50 [10]: 13.2 µM
EC50 [10]: 12.2 µM
IC50 (Homo sapiens, AN3-CA, cell line AN3 CA, endometrium, adenocarcinoma): 21.1 µM
IC50 (Homo sapiens, AN3-CA, cell line AN3 CA): 21.1 µM
IC50 (Homo sapiens, AU565, cell line AU565, breast, NS): 20.5 µM
IC50 [11]: > 30 µM
EC50 [11]: 0.1 µM
IC50 (Homo sapiens, BFTC-909, cell line BFTC-909): > 30 µM
EC50 (Homo sapiens, BL-41, BL-41 cells): 16.6 µM
IC50 [12]: 17.2 µM
EC50 [12]: 16.6 µM
IC50 (Homo sapiens, BT-20, BT-20 cells): > 30 µM
IC50 (Homo sapiens, BT-20, cell line BT-20, breast, ductal_carcinoma): > 30 µM
IC50 (Homo sapiens, BT-549, cell line BT-549, breast, ductal_carcinoma): 19.5 µM
EC50 (Homo sapiens, BV-173, BV-173 cells): 12.5 µM
IC50 [13]: 12.8 µM
EC50 [13]: 12.5 µM
IC50 (Homo sapiens, BXPC-3, cell line BxPC-3, pancreas, ductal_carcinoma): 26.1 µM
IC50 (Homo sapiens, C32, C32 cells): > 30 µM
IC50 (Homo sapiens, CAKI-1, Caki-1 (kidney)): > 30 µM
IC50 [14]: > 30 µM
EC50 [14]: 13.3 µM
IC50 (Homo sapiens, CAKI-2, Caki-2 (kidney)): > 30 µM
IC50 (Homo sapiens, CAKI-2, cell line Caki-2, kidney, clear_cell_renal_cell_carcinoma): > 30 µM
IC50 (Homo sapiens, CAL-51, CAL-51 cells): > 30 µM
IC50 (Homo sapiens, CAL-51, cell line CAL-51, breast, NS): > 30 µM
IC50 [15]: > 30 µM
EC50 [15]: 15.7 µM
IC50 [16]: > 30 µM
EC50 [16]: 15.7 µM
IC50 [17]: > 30 µM
EC50 [17]: 27.8 µM
IC50 [18]: > 30 µM
EC50 [18]: 27.8 µM
EC50 (Homo sapiens, CAL-120, CAL-120 cells): 11.6 µM
IC50 [19]: 22.3 µM
EC50 [19]: 11.6 µM
IC50 (Homo sapiens, CAMA-1, CAMA-1 (breast)): > 30 µM
IC50 (Homo sapiens, CAMA-1, CAMA-1, breast, NS): > 30 µM
IC50 (Homo sapiens, CAPAN-1, Capan-1 (pancreas)): > 30 µM
IC50 [20]: > 30 µM
EC50 [20]: 3.35 µM
IC50 (Homo sapiens, CCRF-CEM, CCRF-CEM cells): > 30 µM
IC50 (Homo sapiens, CCRF-CEM, haematopoietic_and_lymphoid_tissue, acute_lymphoblastic_T_cell_leukaemia): > 30 µM
IC50 [21]: 29.7 µM
EC50 [21]: 12.7 µM
